Literature values, collected in patent US12599131B2, “Disinfectant composition” (KAO CORPORATION, priority 2020, dated 2026).

conditions: 0.1 mol/L in water, Handbook of Chemistry or Chemicalize

SMILES	pKa (25° C.)
CCCCCCCCC(CCCCCC)C(=O)O (stereo not drawn) [2-hexyldecanoic acid]	5.12
CCCCCCCCC(CCCCCCCC)C(=O)O [2-octyldecanoic acid]	4.98
O=C(O)CCCCC(=O)O [adipic acid]	4.3
CCCCCCCCCC(=O)O [capric acid]	4.95
CCCCCC(=O)O [caproic acid]	4.6
O=CO [formic acid]	3.54
